Data as given in patent US20100323990A1, “SHIP 1 MODULATOR PRODRUGS” (THE UNIVERSITY OF BRITISH COLUMBIA, priority 2006, published 2010).

Tests used:
[1] = test system: Mast cells; assay: Stimulation of mast cells by FcεRI crosslinking (Assay 4); type: cell-based; details: test compound 30 min prior to DNP-HSA
Protocol: Assay 1) In vitro testing in a SHIP enzyme assay. Test compounds were dissolved in a suitable solvent (e.g. EtOH, DMSO and others) and diluted into aqueous buffer (20 mM Tris HCl, pH 7.5 and 10 mM MgCl2). SHIP enzyme assays were performed in 96-well microtitre plates with 10 ng of enzyme/well in a total volume of 25 μL of 20 mM Tris HCl, pH 7.5 and 10 mM MgCl2. SHIP enzyme was incubated with test extracts (provided in solvent) or vehicle for 15 min at 23° C. before the addition of 100 μM inositol-1,3,4,5-tetrakisphosphate (Echelon Biosciences Inc, Salt Lake City, Utah). After 20 min at 37° C. and the amount of inorganic phosphate released assessed by the addition of Malachite Green reagent and absorbance measurement at 650 nm. Assay 2) Macrophage TNF-α production. J774.1a macrophage cells were treated with 10 μg/mL of test compound dissolved in solvent (e.g. cyclodextran) for 40 minutes prior to the addition of 100 ng/mL LPS. Culture supernatants were collected after 2 hr and 5 hr for TNF-α determination by ELISA. Assay 3) Macrophage TNF-α NO assay. J774.1a macrophage cells were treated with 10 μg/ml of test compound dissolved in solvent for 40 minutes prior to the addition of LPS. Culture supernatants were collected after 24 hr. for determination of NO concentration using the Griess reagent. Assay 4) Stimulation of mast cells by FcεRI crosslinking. Mast cells were pre-loaded overnight in BMMC medium lacking IL-3 with 0.1 μg/ml anti-DNP IgE (SPE-7, Sigma, Oakville, Ont). For calcium flux measurements, cells were incubated with 2 μM fura 2-acetoxymethyl ester (Molecular Probes, Eugene, Oreg.) in Tyrode's buffer at 23° C. for 45 min. Cells were then washed and incubated in the presence of the test compound 30 min prior to stimulation with the indicated concentration of DNP-human serum albumin (DNP-HSA). Calcium influx was monitored by spectrofluorometry as described previously. For analysis of intracellular signaling, cells were pre-loaded with anti-DNP IgE as above, pre-treated with the test compound for 30 min at 37° C. and stimulated with 20 ng/ml DNP-HSA for 5 min. Total cell lysates were then prepared and analyzed for phospho-PKB, phospho-p38^MAPK, phospho-MAPK, Grb-2 (Cell Signalling, Mississauga, Ont) and SHIP^6 by immunoblot analysis. Assay 5) Mouse acute cutaneous anaphylaxis model. […] The ability of SHIP activators to reduce tumor cell survival was assessed in MM cell lines treated with the test compound. The lines OPM1, OPM2, MM.1S and RPMI 8226 were plated at a density of 1×10^5 cells/mL in 200 μL of medium with various concentrations of the test compound, and viable cell numbers were determined on day 3 and day 5 by trypan blue exclusion. […]

[2] = test system: J774.1a macrophage cells; assay: Macrophage TNF-α NO assay (Assay 3), Griess reagent; type: cell-based; details: 10 μg/ml test compound, LPS, supernatants after 24 hr; further: key: a ‘+’ indicates a positive result for desired activity; a ‘−’ indicates a negative result for desired activity
Protocol: (§1) Assay 1) In vitro testing in a SHIP enzyme assay. Test compounds were dissolved in a suitable solvent (e.g. EtOH, DMSO and others) and diluted into aqueous buffer (20 mM Tris HCl, pH 7.5 and 10 mM MgCl2). SHIP enzyme assays were performed in 96-well microtitre plates with 10 ng of enzyme/well in a total volume of 25 μL of 20 mM Tris HCl, pH 7.5 and 10 mM MgCl2. SHIP enzyme was incubated with test extracts (provided in solvent) or vehicle for 15 min at 23° C. before the addition of 100 μM inositol-1,3,4,5-tetrakisphosphate (Echelon Biosciences Inc, Salt Lake City, Utah). After 20 min at 37° C. and the amount of inorganic phosphate released assessed by the addition of Malachite Green reagent and absorbance measurement at 650 nm. Assay 2) Macrophage TNF-α production. J774.1a macrophage cells were treated with 10 μg/mL of test compound dissolved in solvent (e.g. cyclodextran) for 40 minutes prior to the addition of 100 ng/mL LPS. Culture supernatants were collected after 2 hr and 5 hr for TNF-α determination by ELISA. Assay 3) Macrophage TNF-α NO assay. J774.1a macrophage cells were treated with 10 μg/ml of test compound dissolved in solvent for 40 minutes prior to the addition of LPS. Culture supernatants were collected after 24 hr. for determination of NO concentration using the Griess reagent. Assay 4) Stimulation of mast cells by FcεRI crosslinking. Mast cells were pre-loaded overnight in BMMC medium lacking IL-3 with 0.1 μg/ml anti-DNP IgE (SPE-7, Sigma, Oakville, Ont). For calcium flux measurements, cells were incubated with 2 μM fura 2-acetoxymethyl ester (Molecular Probes, Eugene, Oreg.) in Tyrode's buffer at 23° C. for 45 min. Cells were then washed and incubated in the presence of the test compound 30 min prior to stimulation with the indicated concentration of DNP-human serum albumin (DNP-HSA). Calcium influx was monitored by spectrofluorometry as described previously. For analysis of intracellular signaling, cells were pre-loaded with anti-DNP IgE as above, pre-treated with the test compound for 30 min at 37° C. and stimulated with 20 ng/ml DNP-HSA for 5 min. Total cell lysates were then prepared and analyzed for phospho-PKB, phospho-p38^MAPK, phospho-MAPK, Grb-2 (Cell Signalling, Mississauga, Ont) and SHIP^6 by immunoblot analysis. Assay 5) Mouse acute cutaneous anaphylaxis model. 6-8 week old CD1 mice (University of British Columbia Animal Facility, Vancouver, BC) were sensitized to the hapten DNP by cutaneous application of 25 μL of 0.5% dinitrofluorobenzene (DNFB) (Sigma, Oakville, Ont) in acetone to the shaved abdomen of mice for two consecutive days. 24 hrs later, test substances (dissolved in 10 μL of 1:2 DMSO:MeOH) were painted on the right ear while the left ear received vehicle control. 30 min after drug application, DNFB was applied to both ears to induce mast cell degranulation. A 6 mm punch was taken from the ear and immediately frozen on dry ice for subsequent determination of neutrophil myeloperoxidase (MPO) activity. Assay 6) Mouse endotoxemia model. 6-8 week old C57B16 mice (VCHRI Mammalian Model of Human Disease Core Facility, Vancouver, BC) were orally administered the test compound 30 min prior to an IP injection of 2 mg/kg of LPS (E. Coli serotype 0111:B4, Sigma, Oakville, Ont). Blood was drawn 2 hrs later for determination of plasma TNFα by ELISA. Assay 7) In vitro Mulitple Myeloma (MM) assay. The ability of SHIP activators to reduce tumor cell survival was assessed in MM cell lines treated with the test compound. The lines OPM1, OPM2, MM.1S and RPMI 8226 were plated at a density of 1×10^5 cells/mL in 200 μL of medium with various concentrations of the test compound, and viable cell numbers were determined on day 3 and day 5 by trypan blue exclusion. The lines RPMI 8226 and U266 were plated at a density of 1×10^6 cells/mL in 250 μL of medium with various concentrations of the test compound. At day 4, the medium of each culture was replaced by fresh medium containing the same concentration of test compound. […]

[3] = test system: J2M macrophage cells; assay: TNFα production in LPS-stimulated J2M macrophages (Example 10); type: cell-based; details: 2 ng/mL LPS
Protocol: An assay to determine the inhibition of macrophage TNFα by varying concentrations of Compound 106 was carried out as follows.
J2M macrophage cells were plated at 2×10^5 cells/well in 24 well plates. The next day the media was changed and Compound 106 or PBS carrier were added to the wells at the indicated concentrations for 30 min prior to stimulation of the cells with 2 ng/mL lipopolysaccharide (LPS). LPS activation of macrophages leads to production of TNFa which can be detected in the culture supernatant and quantified by ELISA. The results are depicted in a graph in FIG. 2.

[4] = test system: plasma TNFα; assay: Mouse endotoxemia model (Assay 6), plasma TNFα by ELISA; type: in vivo, mice; details: oral, 30 min prior to IP 2 mg/kg LPS, plasma TNFα 2 hrs later
Protocol: as §1, with “6-8 week old C57B16 mice (VCHRI Mammalian Model of Human Disease Core Facility, Vancouver, BC) were orally administered the test compound 30 min prior to an IP injection of 2 mg/kg of LPS (E. Coli serotype 0111:B4, Sigma, Oakville, Ont). Blood was drawn 2 hrs later for determination of plasma TNFα by ELISA. Assay 7) In vitro Mulitple Myeloma (MM) assay.” left out, “exclusion.” for “exclusion. The lines RPMI 8226 and U266 were plated at a density of 1×10^6 cells/mL in 250 μL of medium with various concentrations of the test compound. At day 4, the medium of each culture was replaced by fresh medium containing the same concentration of test compound.”

[5] = test system: J774.1a macrophage cells; assay: Macrophage TNF-α production (Assay 2); type: cell-based; details: 10 μg/mL test compound, 100 ng/mL LPS, supernatants after 2 hr and 5 hr; further: key: a ‘+’ indicates a positive result for desired activity; a ‘−’ indicates a negative result for desired activity
Protocol: as §1

[6] = test system: Bone marrow derived mast cells; assay: Calcium influx in mast cells after IgE receptor crosslinking (Example 11); type: cell-based; details: 1 hr treatment, anti IgE antibody
Protocol: An assay to determine the inhibition of calcium influx in mast cells by Compound 106 was carried out as follows.
The activation of mast cells by IgE receptor crosslinking leads to an influx of calcium into the cells, followed by degranulation and secretion of pro-inflammatory mediator. Bone marrow derived mast cells were loaded with the fluorescent calcium indicator dye Fura-2 prior to treatment for 1 hr with Compound 106 or PBS carrier. Cells were then stimulated or not with an anti IgE antibody to cross-link the IgE receptors. Calcium influx was then monitored by fluorimetry. The results are depicted in a graph in FIG. 3.

## Cc1cc(OC(=O)C(N)CCCCN)cc2c1[C@]1(C)CCC3C(C)(C)CCC[C@]3(C)[C@H]1C2 (stereo partly drawn) [Compound 106]
[1]
  Assay 4: Stimulation of mast cells by FcεRI crosslinking, desired activity: +
[2]
  Assay 3: Macrophage NO assay, desired activity: +
[3]
  inhibition of macrophage TNFα production: Inhibits Macrophage TNFα Production
[4]
  Assay 6: Mouse endotoxemia model, desired activity: +
[5]
  Assay 2: Macrophage TNF-α production, desired activity: +
[6]
  inhibition of calcium influx in mast cells: Inhibits Calcium Influx in Mast Cells
